Values after ≈ are worked out from the molar mass of the structure shown.
Experiments:
Assay type in all cases: cell-based
[1] = test system: Enterovirus 71 (EV71); experiment: Inhibition of EV71-induced cytopathogenicity (CPE) in Vero cells, MTT; details: for EC50: Enterovirus A, read-out: EC50 (µg/mL) Vero; for EC50 / EC50 (µg/mL) Vero: concentration for 50% protection from virus-induced cytopathogenicity, Vero cells, 100 TCID50 EV71, 48 h, MTT, mean ± SD of three experiments
Experimental: (§1) The antiviral activities of gramine and its derivatives against EV71 based on inhibition of virus-induced cytopathogenicity effects (CPEs) in African green monkey kidney cells (Vero) and rhabdomyosarcoma cells (RD) were examined. The cytotoxic effects were also evaluated. The inhibitory activities expressed as half maximal effective concentration (EC50) values and selectivity indexes (SI) for the target compounds are presented in Table 1, and the dose-dependent antiviral effects are shown in Figure 1A.
Figure 1 Gramine and its synthetic derivatives inhibited virus-induced CPE. (A) Vero cells were infected with 100 TCID50 of EV71 mixed with serial dilutions of tested compounds for 1.5 h at 37 °C; the inoculum was aspirated and cells were incubated with DMEM/tested compounds at 37 °C, 5% CO2 for 48 h pi. The viability of the cells was determined with an MTT assay; (B) Morphology image of Vero and RD cells treated with compounds 4a, 4i, 4r, and 4s for 48 h pi. (magnification, 20×).
(§2) The activity of compounds against EV71 was determined based on the inhibition of virus-induced cytopathogenicity effects (CPEs) in acutely infected cells. Vero and RD cells grown to 90% confluency in 96-well dishes were washed with phosphate buffered saline (PBS) and infected with 100 TCID50 of EV71 mixed with serial dilutions of tested compounds for 1.5 h at 37 °C. The inoculum was aspirated and cells were incubated with DMEM and test compounds at 37 °C, 5% CO2 for 48 h. The CPEs were observed microscopically and the viability of the cells was determined with a 3-(4,5-dimethylthiazol-2-yl)-2,5-diphenyltetrazolium bromide (MTT) assay. The concentrations required for the test compounds to achieve 50% protection from virus-induced cytopathogenicity (EC50) were determined. Adverse effects of these compounds on the host cells were also assessed by means of the MTT-method; by exposing uninfected cells to various concentrations of test compounds for 48 h at 37 °C, the viability of the cells was detected. The 50% cell cytotoxic concentrations (CC50) of compounds were calculated with the SPSS software (SPSS, Chicago, IL, USA). Selectivity indexes were calculated as the ratio of CC50: EC50.
(§3) Cell viability was assessed by an MTT assay, which functions based on the reduction of a MTT into formazan dye by active mitochondria. The cells were treated with 100 µL of MTT (1 mg/mL, Sigma, St. Louis, MO, USA) and incubated at 37 °C for 4 h. The reaction was blocked by DMSO and measured in a microplate reader (Bio-Tek Instruments, Winooski, VT, USA) at 492 nm. The untreated control was arbitrarily set as 100%.

[2] = test system: Enterovirus 71 (EV71); experiment: Inhibition of EV71-induced cytopathogenicity (CPE) in RD cells, MTT; details: concentration for 50% protection from virus-induced cytopathogenicity, RD cells, 100 TCID50 EV71, 48 h, MTT; for EC50: Enterovirus A, read-out: EC50 (µg/mL) RD
Experimental: as §1, §2, §3

[3] = Cytotoxicity on uninfected Vero cells, MTT; details: African green monkey
Experimental: as §1, §2, §3

[4] = Cytotoxicity on uninfected RD cells, MTT; details: human, concentration reducing cell viability by 50%
Experimental: Human RD cells and Vero cells were maintained in Dulbecco’s modified Eagle’s medium (Gibco-Invitrogen, Carlsbad, CA, USA) supplemented with 10% fetal bovine serum (FBS; Gibco), 100 U/mL of penicillin and streptomycin, and 2 mM L-glutamine. Enterovirus 71 (EV71) was kindly provided by Zhanqiu Yang (Institute of Medical Virology, School of Medicine, Wuhan University, China) and propagated in RD cell lines. The virus titer was determined by the standard method of median tissue culture infective dose (TCID50) on RD cells.
as §2, §3

[5] = concentration reducing cell viability by 50%, uninfected Vero cells, 48 h, MTT, read-out: CC50 (µg/mL) Vero

Molecule `Cn1cc(C(Nc2ccccn2)c2ccc(Cl)cc2)c2ccccc21` (centres unmarked) [Compound 4g] has an EC50 [1] of 4.9 ± 0.7 µg/mL (≈ 14.1 µM), an EC50 [2] of 4.9 ± 1.2 µg/mL (≈ 14.1 µM) and a CC50 at 48 h [3, 5] of 38.6 ± 5.7 µg/mL (≈ 111 µM). The CC50 at 48 h [4] was 32 ± 1.8 µg/mL (≈ 92 µM).
Molecule `Fc1ccccc1C(Nc1ccccn1)c1c[nH]c2ccccc12` (centres unmarked) [Compound 4d] has an EC50 [1] of 9.2 ± 2.1 µg/mL (≈ 29 µM), an EC50 [2] of 5.8 ± 1.4 µg/mL (≈ 18.3 µM) and a CC50 at 48 h [3, 5] of 37.8 ± 5.8 µg/mL (≈ 119 µM). For the same molecule, the CC50 at 48 h [4] was 28 ± 5.2 µg/mL (≈ 88.2 µM).
For `c1ccc(NC(c2ccccn2)c2c[nH]c3ccccc23)nc1` (centres unmarked) [Compound 4l], the “EC50 (µg/mL) Vero” value [1] was “— (less than 50% inhibition)”, the “EC50 (µg/mL) RD” value [2] was “— (less than 50% inhibition)” and the CC50 at 48 h [3, 5] was 96.2 ± 15.5 µg/mL (≈ 320 µM). It also gave a CC50 at 48 h [4] of 65.2 ± 9.1 µg/mL (≈ 217 µM).
`Cn1cc(C(Nc2ccccn2)c2ccncc2)c2ccccc21` (centres unmarked) [Compound 4o] showed an EC50 [1] of 16.9 ± 1.5 µg/mL (≈ 53.8 µM), an EC50 [2] of 9.5 ± 1.7 µg/mL (≈ 30.2 µM) and a CC50 at 48 h [3, 5] of 72.8 ± 18.8 µg/mL (≈ 232 µM). For the same molecule, the CC50 at 48 h [4] was 39.2 ± 11.6 µg/mL (≈ 125 µM).
With `Fc1ccc(C(c2c[nH]c3ccccc23)n2cccn2)cc1` (centres unmarked) [Compound 4t] the EC50 [1] was 1.9 ± 0.6 µg/mL (≈ 6.52 µM), the EC50 [2] was 2.6 ± 0.8 µg/mL (≈ 8.92 µM) and the CC50 at 48 h [3, 5] was 10.5 ± 2.4 µg/mL (≈ 36 µM). It also gave a CC50 at 48 h [4] of 12.6 ± 3.5 µg/mL (≈ 43.3 µM).
With `Cn1cc(C(Nc2ccccn2)c2ccccn2)c2ccccc21` (centres unmarked) [Compound 4m] the “EC50 (µg/mL) Vero” value [1] was “— (less than 50% inhibition)”, the “EC50 (µg/mL) RD” value [2] was “— (less than 50% inhibition)” and the CC50 at 48 h [3, 5] was over 200 µg/mL. The CC50 at 48 h [4] was over 200 µg/mL.
`Clc1ccccc1C(Nc1nc2ccccc2s1)c1c[nH]c2ccccc12` (centres unmarked) [Compound 4p] showed an EC50 [1] of 2.1 ± 0.7 µg/mL (≈ 5.39 µM), an EC50 [2] of 3.2 ± 0.4 µg/mL (≈ 8.21 µM) and a CC50 at 48 h [3, 5] of 6.6 ± 1.4 µg/mL (≈ 16.9 µM). It also gave a CC50 at 48 h [4] of 11.7 ± 4.6 µg/mL (≈ 30 µM).
`Clc1ccccc1C(Nc1ccccn1)c1c[nH]c2ccccc12` (centres unmarked) [Compound 4b] gave an EC50 [1] of 5.1 ± 2.7 µg/mL (≈ 15.3 µM), an EC50 [2] of 7.4 ± 1.1 µg/mL (≈ 22.2 µM) and a CC50 at 48 h [3, 5] of 18.6 ± 1.4 µg/mL (≈ 55.7 µM). The CC50 at 48 h [4] was 22.8 ± 1.7 µg/mL (≈ 68.3 µM).
`Cn1cc(C(Nc2ccccn2)c2ccccc2F)c2ccccc21` (centres unmarked) [Compound 4h] gave an EC50 [1] of 10.5 ± 2.1 µg/mL (≈ 31.7 µM), an EC50 [2] of 11.2 ± 4.6 µg/mL (≈ 33.8 µM) and a CC50 at 48 h [3, 5] of 89.3 ± 12.6 µg/mL (≈ 269 µM). It also gave a CC50 at 48 h [4] of 52.2 ± 8.3 µg/mL (≈ 158 µM).
`Fc1ccc(C(c2c[nH]c3ccccc23)n2cncn2)cc1` (centres unmarked) [Compound 4u] gave an EC50 [1] of 2.3 ± 0.3 µg/mL (≈ 7.87 µM), an EC50 [2] of 3.1 ± 1.3 µg/mL (≈ 10.6 µM) and a CC50 at 48 h [3, 5] of 4.9 ± 0.6 µg/mL (≈ 16.8 µM). The CC50 at 48 h [4] was 6.8 ± 2.5 µg/mL (≈ 23.3 µM).
Molecule `Fc1ccccc1C(Nc1nc2ccccc2s1)c1c[nH]c2ccccc12` (centres unmarked) [Compound 4q] has an EC50 [1] of 1.8 ± 1.1 µg/mL (≈ 4.82 µM), an EC50 [2] of 2.7 ± 1.2 µg/mL (≈ 7.23 µM) and a CC50 at 48 h [3, 5] of 10.8 ± 2.5 µg/mL (≈ 28.9 µM). It also gave a CC50 at 48 h [4] of 14.5 ± 3.6 µg/mL (≈ 38.8 µM).
With `Fc1ccc(C(Nc2ccccn2)c2c[nH]c3ccccc23)cc1` (centres unmarked) [Compound 4e] the EC50 [1] was 7.3 ± 2.6 µg/mL (≈ 23 µM), the EC50 [2] was 6.2 ± 2.8 µg/mL (≈ 19.5 µM) and the CC50 at 48 h [3, 5] was 40.7 ± 2.5 µg/mL (≈ 128 µM). The CC50 at 48 h [4] was 29.5 ± 3.3 µg/mL (≈ 93 µM).
`NC(=O)c1ncn([C@@H]2O[C@H](CO)[C@@H](O)[C@H]2O)n1` [ribavirin, reference compound] gave an EC50 [1] of 44.6 ± 13.5 µg/mL (≈ 183 µM), an EC50 [2] of 32.1 µg/mL (≈ 131 µM) and a CC50 at 48 h [3] of over 500 µg/mL. The CC50 at 48 h [4] was 436 µg/mL (≈ 1780 µM).
In the case of `c1ccc(NC(c2ccncc2)c2c[nH]c3ccccc23)nc1` (centres unmarked) [Compound 4n], the “EC50 (µg/mL) Vero” value [1] is reported as “— (less than 50% inhibition)”, the “EC50 (µg/mL) RD” value [2] is reported as “— (less than 50% inhibition)” and the CC50 at 48 h [3, 5] is reported as 121 ± 20.5 µg/mL (≈ 402 µM). The CC50 at 48 h [4] was over 200 µg/mL.
In the case of `CN(C)Cc1c[nH]c2ccccc12` [Gramine], the “EC50 (µg/mL) Vero” value [1] is reported as “— ^d (less than 50% inhibition)”, the anti-EV71 activity ([1]; inhibition of EV71-induced CPEs compared with virus control) is reported as “not observed” and the “EC50 (µg/mL) RD” value [2] is reported as “— (less than 50% inhibition)”. It also gave a CC50 at 48 h [3] of 101 ± 5.6 µg/mL (≈ 582 µM) and a CC50 at 48 h [4] of 85 ± 16.3 µg/mL (≈ 488 µM).
Molecule `Clc1ccc(C(Nc2ccccn2)c2c[nH]c3ccccc23)cc1` (centres unmarked) [Compound 4c] has an EC50 [1] of 5.6 ± 1.3 µg/mL (≈ 16.8 µM), an EC50 [2] of 6.7 ± 0.8 µg/mL (≈ 20.1 µM) and a CC50 at 48 h [3, 5] of 22.4 ± 3.6 µg/mL (≈ 67.1 µM). It also gave a CC50 at 48 h [4] of 24.6 ± 3.5 µg/mL (≈ 73.7 µM).
`FC(F)(F)c1ccc(C(Nc2ccccn2)c2c[nH]c3ccccc23)cc1` (centres unmarked) [Compound 4j] showed an EC50 [1] of 8.7 ± 2.9 µg/mL (≈ 23.7 µM), an EC50 [2] of 8.3 ± 3.5 µg/mL (≈ 22.6 µM) and a CC50 at 48 h [3, 5] of 15.8 ± 3.3 µg/mL (≈ 43 µM). It also gave a CC50 at 48 h [4] of 17.8 ± 2.6 µg/mL (≈ 48.5 µM).
In the case of `Cn1cc(C(Nc2ccccn2)c2ccccc2Cl)c2ccccc21` (centres unmarked) [Compound 4f], the EC50 [1] is reported as 14.4 ± 3.2 µg/mL (≈ 41.4 µM), the “EC50 (µg/mL) RD” value [2] is reported as “— (less than 50% inhibition)” and the CC50 at 48 h [3, 5] is reported as 86.4 ± 7.4 µg/mL (≈ 248 µM). For the same molecule, the CC50 at 48 h [4] was 44 ± 5.1 µg/mL (≈ 126 µM).
Molecule `Cn1cc(C(Nc2ccccn2)c2ccc(C(F)(F)F)cc2)c2ccccc21` (centres unmarked) [Compound 4k] has an EC50 [1] of 13.2 ± 1.3 µg/mL (≈ 34.6 µM), an EC50 [2] of 9.8 ± 3.4 µg/mL (≈ 25.7 µM) and a CC50 at 48 h [3, 5] of 18.5 ± 4.8 µg/mL (≈ 48.5 µM). It also gave a CC50 at 48 h [4] of 27.6 ± 8.3 µg/mL (≈ 72.4 µM).
